# Data reported in patent US20200164047A1, “THERAPY AND DIAGNOSIS OF DISEASE CHARACTERIZED BY ALTERATIONS IN THE DNA DAMAGE RESPONSE” (UNIVERSITÀ DEGLI STUDI DI MILANO, priority 2017, published 2020).
# How the values were obtained:
# HCT116 and HeLa cells = settings: low glucose conditions plus metformin, 24 h
# Procedure: FIG. 14. […] (A) Images of HCT116 and HeLa cells cultured for 24 hours in either nutrient-rich DMEM (containing 10% FBS and 10 mM glucose), DMEM containing 2.5 mM glucose (glucose deprivation), DMEM with 0.1% serum (serum deprivation) or DMEM with no glutamine, no methionine and no cysteine (amino acids deprivation). Media were replenished every 6 hours. (B) Quantification of cell death of HCT116 and HeLa cells cultured as in A as measured by propidium iodide uptake using flow cytometry. […] Media were replenished every 6 hours.
# FIG. 31. […] (B) Immunoblotting analysis of total cell lysates used for immunoprecipitation in (A).
# Cells were harvested by trypsinization, washed in PBS (pH 7.2), and then stained with propidium iodide (10 mg/ml) added immediately prior to analysis. Cell fluorescence was then measured on a flow cytometer (FACSCalibur; Becton Dickinson, CA) and analyzed using CellQuest software.
# HeLa cells = assay: HeLa viable cell count with DNA damaging agents (trypan blue); assay type: cell-based; settings: hydroxyurea 10 mM + gemcitabine 10 nM; high (10 mM) or low (2.5 mM) glucose
# Procedure: After 24 hrs treatment, cells are allowed to grow for further 24 hrs (replacing the medium with normal medium), before being harvested and counted with trypan blue to measure viable cells.
# (§1) HeLa cells were seeded in 6-well plates (200,00 cells/well), and left untreated, or treated with DNA damaging agents (hydroxyurea 10 mM+gemcitabine 10 nM), in high (10 mM) or low (2.5 mM) glucose, and treated with perphenazine (PPZ) as indicated. After 24 hrs treatment, cells are allowed to grow for further 24 hrs (replacing the medium with normal medium), before being harvested and counted with trypan blue to measure viable cells.
# as §1, with “FTY-720 (FTY)” for “perphenazine (PPZ)”
# as §1, with “Ceramide” for “perphenazine (PPZ)”
# Cells were harvested by trypsinization, washed in PBS (pH 7.2), and then stained with trypan blue solution 04% v/v (Sigma Aldrich) added immediately prior to analysis. Cells ware then counted on a TC30 automated cell counter (Biorad).
# [1] = system: BON-1 neuroendocrine tumor cells; assay: BON-1 cell viability; assay type: cell-based; settings: metformin with low (2.5 mM) glucose
# Text: FIG. 57. […] The assay as performed as described in the other examples.
# [2] = Blood glucose levels in tumor-bearing mice; settings: metformin 200 mg/kg oral gavage
# Text: (B-D) The levels of blood glucose measured at the end of each feeding/fasting cycle in different experimental groups. […] Error bars indicate SEM. (n=5 per group).
# To this end, mice bearing HCT116 xenografts were distributed into five groups as schematized in FIG. 13; the first two groups were kept on ad libitum feeding while the three other groups were subjected to 24-hour cycles of feeding-fasting. Fasting in those groups was achieved by complete withdrawal of food while allowing free access to water. […] The first of those three groups (Fed/Fast group) received vehicle every 48h to assess the effect of fasting-feeding cycles alone on tumor growth. […] Tumor growth was monitored in all groups.
smiles,measurement,setting,value
CN(C)C(=N)NC(=N)N.Cl [metformin],cell death,HCT116 and HeLa cells,marked cell death
same,cooperation with DNA damaging agents (viable cells),HeLa cells,potentiates the effect of DNA damaging agents in low glucose
same,cell viability,[1],reduction in cell viability
same,blood glucose levels,[2],reduced blood glucose levels but to a much less extent than that induced by fasting
